Biological target: T1, recombinant human WRN (Homo sapiens, UniProt Q14191)
T1 construct: purchased BPS 101264
Assay: Inhibition of WRN enzyme activity (ATPase), ADP-Glo Kinase Assay
Format: biochemical
Conditions: WRN protein 5 nM, Flap 0.1 nM, ATP 30 µM; read-out: IC50
Source text: The following method was used to determine the degree of inhibition of recombinant human WRN ATPase activity by the compounds of the present disclosure in vitro. In this method, ADP-Glo™ Kinase Assay kit (catalog No. V9102) from Promega was used. Detailed experimental procedures can be found in the kit manual.
The experimental procedure was briefly described as follows: test compounds were first dissolved in DMSO to prepare stock solutions, followed by serial dilution using reaction buffer (30 mM Tris, pH 7.5, 2 mM MgCl2, 50 mM NaCl, 0.02% BSA, 0.1% Pluronic F127), with final concentrations of test compounds in the reaction system ranging from 1000 nM to 0.004 nM; WRN protein (purchased from BPS, catalog No. 101264), substrate 5-flap oligonucleotide (Flap26) (synthesized by Shanghai Generay Biotech Co., Ltd., sequence 5'-[…]-3'), and ATP working solution (from ADP-Glo™ Kinase Assay kit component V915A) were prepared using reaction buffer. Reactions were performed in 384-well microplates. At first the compounds and recombinant human WRN protein (final concentration 5 nM) were added to the wells and the plate was incubated at room temperature for 15 minutes, then Flap solution (final concentration 0.1 nM) and ATP solution (final concentration 30 µM) were added to the reaction solution and the plate was incubated at room temperature for 10 minutes. Subsequently, 5 µL of ADP-Glo Reagent was added to the reaction system and incubated at room temperature for 40 minutes. Then 10 µL of Kinase Detection Reagent was added to the reaction system and incubated at room temperature for 30 minutes. After the incubation was completed, chemiluminescence intensity values of each well were measured using a microplate reader in luminescence mode. The percentage inhibition of the compounds at each concentration was calculated by comparison with the luminescence intensity values of the control group (0.1% DMSO), and IC50 values of compounds were obtained by nonlinear regression analysis of compound concentration logarithm-inhibition rate using GraphPad Prism 9 software, as shown in Table 1.
The IC50 value results of the compounds of the present disclosure are expressed as AA and A, respectively as follows: "AA" indicates IC50 ≤ 1 nM; "A" indicates 1 nM < IC50 ≤ 100 nM. Table 1 IC50 of the compounds of the present disclosure for inhibiting WRN enzyme activity (ATPase)

T1 sequence (Q14191 whole entry): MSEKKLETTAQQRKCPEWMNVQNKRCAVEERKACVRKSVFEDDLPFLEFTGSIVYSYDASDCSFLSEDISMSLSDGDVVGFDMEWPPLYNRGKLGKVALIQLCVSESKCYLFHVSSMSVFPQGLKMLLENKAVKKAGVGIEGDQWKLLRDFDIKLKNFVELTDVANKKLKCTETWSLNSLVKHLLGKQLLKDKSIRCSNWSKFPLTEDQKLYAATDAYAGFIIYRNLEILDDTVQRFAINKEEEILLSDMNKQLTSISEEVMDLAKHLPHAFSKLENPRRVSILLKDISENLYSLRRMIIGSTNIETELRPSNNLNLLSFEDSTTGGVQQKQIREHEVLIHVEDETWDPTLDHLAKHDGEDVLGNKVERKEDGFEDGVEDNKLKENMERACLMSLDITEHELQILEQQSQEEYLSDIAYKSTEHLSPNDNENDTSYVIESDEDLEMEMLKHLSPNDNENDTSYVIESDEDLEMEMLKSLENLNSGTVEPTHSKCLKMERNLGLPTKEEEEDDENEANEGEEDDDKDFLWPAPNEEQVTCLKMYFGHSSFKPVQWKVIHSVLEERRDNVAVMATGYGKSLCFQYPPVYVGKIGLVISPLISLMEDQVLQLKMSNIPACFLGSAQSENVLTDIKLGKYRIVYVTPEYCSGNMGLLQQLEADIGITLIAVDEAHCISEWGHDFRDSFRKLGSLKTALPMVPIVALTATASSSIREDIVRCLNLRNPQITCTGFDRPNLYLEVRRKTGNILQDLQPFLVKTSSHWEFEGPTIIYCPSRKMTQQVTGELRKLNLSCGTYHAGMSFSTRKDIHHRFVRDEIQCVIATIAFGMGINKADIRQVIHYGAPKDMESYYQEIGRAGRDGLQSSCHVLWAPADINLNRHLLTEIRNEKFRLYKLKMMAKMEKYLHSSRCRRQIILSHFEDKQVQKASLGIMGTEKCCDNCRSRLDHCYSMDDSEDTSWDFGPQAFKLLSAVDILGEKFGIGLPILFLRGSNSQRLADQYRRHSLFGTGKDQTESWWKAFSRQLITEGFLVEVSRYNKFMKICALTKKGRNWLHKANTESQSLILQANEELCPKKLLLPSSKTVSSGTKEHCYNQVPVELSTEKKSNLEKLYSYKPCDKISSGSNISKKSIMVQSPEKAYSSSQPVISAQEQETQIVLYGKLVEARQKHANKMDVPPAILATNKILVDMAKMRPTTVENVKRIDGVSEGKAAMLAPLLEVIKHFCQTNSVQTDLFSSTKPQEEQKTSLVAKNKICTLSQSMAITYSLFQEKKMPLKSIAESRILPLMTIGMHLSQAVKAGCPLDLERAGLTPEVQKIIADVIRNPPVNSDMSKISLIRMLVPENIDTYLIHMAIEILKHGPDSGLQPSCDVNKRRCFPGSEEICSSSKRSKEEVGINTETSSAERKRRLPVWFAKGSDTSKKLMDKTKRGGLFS

IC50, 1 to 100 nM:
CCc1c(N2CCN(C(=O)c3ncnc(C)c3O)CC2)c(=O)n2nc(C3=CC4(CCC4)C3)nc2n1CC(=O)Nc1ccc(C(F)(F)F)cc1Cl [Example 50, N-(2-chloro-4-(trifluoromethyl)phenyl)-2-(5-ethyl-6-(4-(5-hydroxy-6-methylpyrimidine-4-carbonyl)piperazin-1-yl)-7-oxo-2-(spiro[3.3]hept-1-en-2-yl)-[1,2,4]triazolo[1,5-a]pyrimidin-4(7H)-yl)ac etamide]
CCc1c(N2CCN(C(=O)c3ncccc3O)CC2)c(=O)n2nc(C3=CC4(CCC4)C3)nc2n1CC(=O)Nc1ccc(C(F)(F)F)cc1Cl [Example 51, N-(2-chloro-4-(trifluoromethyl)phenyl)-2-(5-ethyl-6-(4-(3-hydroxypicolinoyl)piperazin-1-yl)-7-oxo-2-(spiro[3.3]hept-1-en-2-yl)-[1,2,4]triazolo[1,5-a]pyrimidin-4(7H)-yl)acetamide]
CCc1c(N2CCN(C(=O)c3ncccc3O)CC2)c(=O)n2nc(C3=CC4CC(=O)CC4C3)cc2n1CC(=O)Nc1ccc(C(F)(F)F)cc1Cl (stereo not drawn) [Example 56, N-(2-chloro-4-(trifluoromethyl)phenyl)-2-(5-ethyl-6-(4-(3-hydroxypicolinoyl)piperazin-1-yl)-7-oxo-2-(5-oxo-1,3a,4,5,6,6a-hexahydropentalen-2-yl)pyrazolo[1,5-a]pyrimidin-4(7H)-yl)acetamide]
CCc1c(N2CCN(C(=O)c3ncnc(C)c3O)CC2)c(=O)n2nc(-c3ccc4ccoc4c3)cc2n1CC(=O)Nc1ccc(C(F)(F)F)cc1Cl [Example 57, 2-(2-(benzofuran-6-yl)-5-ethyl-6-(4-(5-hydroxy-6-methylpyrimidine-4-carbonyl)piperazin-1-yl)-7-oxopyrazolo[1,5-a]pyrimidin-4(7H)-yl)-N-(2-chloro-4-(trifluoromethyl)phenyl)acetamide]
CCc1c(N2CCN(C(=O)c3ncnc(C)c3O)CC2)c(=O)n2nc(-c3ccc4c(c3)OCC4)nc2n1CC(=O)Nc1ccc(S(F)(F)(F)(F)F)cc1 [Example 58, 2-(2-(2,3-dihydrobenzofuran-6-yl)-5-ethyl-6-(4-(5-hydroxy-6-methylpyrimidine-4-carbonyl)piperazin-1-yl)-7-oxo-[1,2,4]triazolo[1,5-a]pyrimidin-4(7H)-yl)-N-(4-(pentafluoro-λ^6-sulfaneyl)phenyl)acetamide]
CCc1c(N2CCN(C(=O)c3ncnc(C)c3O)CC2)c(=O)n2nc(C3=CCCCCC3)cc2n1CC(=O)Nc1ccc(S(F)(F)(F)(F)F)cc1 [Example 59, 2-(2-(cyclohept-1-en-1-yl)-5-ethyl-6-(4-(5-hydroxy-6-methylpyrimidine-4-carbonyl)piperazin-1-yl)-7-oxopyrazolo[1,5-a]pyrimidin-4(7H)-yl)-N-(4-(pentafluoro-λ^6-sulfaneyl)phenyl)acetamide]
CCc1c(N2CCN(C(=O)c3ncnc(C)c3O)CC2)c(=O)n2nc(C(C)=C3CCC3)nc2n1CC(=O)Nc1ccc(C(F)(F)F)cc1Cl [Example 60, N-(2-chloro-4-(trifluoromethyl)phenyl)-2-(2-(1-cyclobutylideneethyl)-5-ethyl-6-(4-(5-hydroxy-6-methylpyrimidine-4-carbonyl)piperazin-1-yl)-7-oxo-[1,2,4]triazolo[1,5-a]pyrimidin-4(7H)-yl)ace tamide]
CCc1c(N2CCN(C(=O)c3ncnc(C)c3O)CC2)c(=O)n2nc(C(C)=C3CCC3)nc2n1CC(=O)Nc1ccc(S(F)(F)(F)(F)F)cc1 [Example 61, 2-(2-(1-cyclobutylideneethyl)-5-ethyl-6-(4-(5-hydroxy-6-methylpyrimidine-4-carbonyl)piperazin-1-yl)-7-oxo-[1,2,4]triazolo[1,5-a]pyrimidin-4(7H)-yl)-N-(4-(pentafluoro-λ^6-sulfaneyl)phenyl)ace tamide]
CCc1c(N2CCN(C(=O)c3ncnc(C)c3O)CC2)c(=O)n2nc(C3=CCC4(CC3)CC4)nc2n1CC(=O)Nc1ccc(C(F)(F)F)cc1Cl [Example 64, N-(2-Chloro-4-(trifluoromethyl)phenyl)-2-(5-ethyl-6-(4-(5-hydroxy-6-methylpyrimidine-4-carbonyl)piperazin-1-yl)-7-oxo-2-(spiro[2.5]oct-5-en-6-yl)-[1,2,4]triazolo[1,5-a]pyrimidin-4(7H)-yl)ac etamide]
CCc1c(N2CCN(C(=O)c3ncccc3O)CC2)c(=O)n2nc(C3=Cc4ccccc4C3)nc2n1CC(=O)Nc1ccc(C(F)(F)F)cc1Cl [Example 72, N-(2-chloro-4-(trifluoromethyl)phenyl)-2-(5-ethyl-6-(4-(3-hydroxypicolinoyl)piperazin-1-yl)-2-(1H-inden-2-yl)-7-oxo-[1,2,4]triazolo[1,5-a]pyrimidin-4(7H)-yl)acetamide]
CCc1c(N2CCN(C(=O)c3ncccc3O)CC2)c(=O)n2nc(-c3cc4ccccc4o3)nc2n1CC(=O)Nc1ccc(C(F)(F)F)cc1Cl [Example 75, 2-(2-(benzofuran-2-yl)-5-ethyl-6-(4-(3-hydroxypicolinoyl)piperazin-1-yl)-7-oxo-[1,2,4]triazolo[1 ,5-a]pyrimidin-4(7H)-yl)-N-(2-chloro-4-(trifluoromethyl)phenyl)acetamide]
CCc1c(N2CCN(C(=O)c3ncccc3O)CC2)c(=O)n2nc(-c3ccc4ccoc4c3)nc2n1CC(=O)Nc1ccc(S(F)(F)(F)(F)F)cc1 [Example 78, 2-(2-(benzofuran-6-yl)-5-ethyl-6-(4-(3-hydroxypicolinoyl)piperazin-1-yl)-7-oxo-[1,2,4]triazolo[1 ,5-a]pyrimidin-4(7H)-yl)-N-(4-(pentafluoro-λ^6-sulfaneyl)phenyl)acetamide]
CCc1c(N2CCN(C(=O)c3ncccc3O)CC2)c(=O)n2nc(-c3cc4ccccc4s3)nc2n1CC(=O)Nc1ccc(C(F)(F)F)cc1Cl [Example 79, 2-(2-(benzo[b]thiophen-2-yl)-5-ethyl-6-(4-(3-hydroxypicolinoyl)piperazin-1-yl)-7-oxo-[1,2,4]triazolo[1,5-a]pyrimidin-4(7H)-yl)-N-(2-chloro-4-(trifluoromethyl)phenyl)acetamide]
CCc1c(N2CCN(C(=O)c3ncnc(C)c3O)CC2)c(=O)n2nc(-c3ccc4c(c3)OCC4)nc2n1CC(=O)Nc1ccc(C(F)(F)F)cc1Cl [Example 81, N-(2-chloro-4-(trifluoromethyl)phenyl)-2-(2-(2,3-dihydrobenzofuran-6-yl)-5-ethyl-6-(4-(5-hydroxy-6-methylpyrimidine-4-carbonyl)piperazin-1-yl)-7-oxo-[1,2,4]triazolo[1,5-a]pyrimidin-4(7H)-yl)acetamide]
CCc1c(N2CCN(C(=O)c3ncnc(C)c3O)CC2)c(=O)n2nc(-c3ccc4c(c3)CCO4)cc2n1CC(=O)Nc1ccc(C(F)(F)F)cc1Cl [Example 82, N-(2-chloro-4-(trifluoromethyl)phenyl)-2-(2-(2,3-dihydrobenzofuran-5-yl)-5-ethyl-6-(4-(5-hydroxy-6-methylpyrimidine-4-carbonyl)piperazin-1-yl)-7-oxopyrazolo[1,5-a]pyrimidin-4(7H)-yl)acet amide]

From EP4800015A1, “AZABICYCLO DERIVATIVE AND PREPARATION METHOD THEREFOR, AND USE” (Zhejiang Hisun Pharmaceutical Co., Ltd., priority 2023, dated 2025)
